By CL/F is commonly meant the apparent clearance, not corrected for the fraction that reaches the circulation. In general, Cmax refers to the maximum level reached in the sampled fluid or tissue. For orientation: Tmax means the time at which the peak concentration occurs.

From ChEMBL document CHEMBL3832547, “Goodman and Gilman Ed. 12 | The Pharmaceutical Basis of Therapeutics| Table AII-I: Pharmacokinetic Data” (2011) come the findings set out here.

Data set [1] is described as follows: (§1) Pharmacokinetic parameters for Letrozole evaluated following single oral administration of Letrozole tablets. It counts as ADME, organism-based. Set-up: dose 2.5 mg, route oral. Particulars: human, in vivo, 2.5 mg.
A further data set relates to Homo sapiens. The description is as §1. Particulars: in vivo. Set-up: dose 2.5 mg, route oral. It counts as ADME, organism-based.

Take `N#Cc1ccc(C(c2ccc(C#N)cc2)n2cncn2)cc1` [LETROZOLE]: in data set [1], the CL/F was 0.58 mL/min/kg, the Cmax was 115 nM and the Tmax was found to be 1 h. The dose excreted in data set [1] (read-out: Excretion) stood at 3.9%. The Vd in the data set on Homo sapiens turned out to be 1.87 L/kg.
